Laboratory results: PMC3441706 (PLoS ONE, 2012)

Experiments:
[1] = system: 59 different human tumor cell lines; assay: NCI-60 DTP human tumor cell line screen, all cell lines combined; type: cell-based; conditions: 48 h, all cancer types, 48 hours incubation
Method: NVX-412 was included in an anti-cancer activity screen by the National Cancer Institute (NCI). The compound was tested against 59 different human tumor cell lines, representing leukemia, melanoma and cancers of the lung, colon, brain, ovary, breast, prostate, and kidney (for a complete list of cell lines please refer to Shoemaker et al. 2006 [5]). The methodology of this in vitro cancer screen is described in detail on the NCI website (http://dtp.nci.nih.gov/branches/btb/ivclsp.html). Briefly, the human tumor cell lines of the cancer screening panel were grown in RPMI 1640 medium containing 5% FCS and 2 mM L-glutamine in 96-well plates at densities ranging from 5,000 to 40,000 cells/well. After 24 hours the experimental drug was added at 5 concentrations plus control and cells were incubated for additional 48 hours. For determination of the growth-inhibitory effect of the compound a sulphorhodamine B assay was performed that employs a chemical fixation step at the end of drug treatment and a subsequent staining for 10 minutes. After a washing step, absorbance was determined at 515 nm. […]

HL-60 = assay: Cytotoxicity assay (cell counting); type: cell-based; conditions: Homo sapiens; HL-60, AML; 72 hours incubation
Method: (§1) Cells were plated in 24-well plates. After cells were allowed to recover for 24 hours, NVX-412 was added in fresh growth medium. The maximal DMSO concentration reached in all experiments was below 0.01%. Respective control experiments at the highest DMSO concentration were performed in order to rule out DMSO-induced effects. After 72 hours incubation the proportion of viable cells was determined by cell counting with a Z1 Coulter Particle Counter (Beckman Coulter, Vienna, AUT), a ViCell XR (Beckman Coulter, Vienna, AUT) or a CASY® Cell Counter (Schärfe, Reutlingen, Germany). Cytotoxicity was expressed as IC50 values that were derived from the corresponding dose–response curves.

HepG2 = assay: Cytotoxicity assay (cell counting); type: cell-based; conditions: Homo sapiens; HepG2, liver carcinoma; 72 hours incubation
Method: as §1

K562 = assay: Cytotoxicity assay (cell counting); type: cell-based; conditions: Homo sapiens; K562, CML; 72 hours incubation
Method: as §1

HT-29 cells [2] = assay: Clonogenic assay; type: cell-based, human; conditions: HT-29, 14 days incubation
Method: (§2) For clonogenic assays, HT-29 and HepG2 cells were plated in 60 mm dishes at a density of 1000 cells per dish. After 24 hours NVX-412 was added at the indicated concentrations. After cultivation for 12–14 days (when assessable colonies were visible), colonies were fixed in 70% ethanol, stained with 0.5% Crystal Violet and counted manually.

HepG2 cells = assay: Clonogenic assay; type: cell-based, human; conditions: HepG2, 12 days incubation
Method: as §2

HT-29 cells [3] = assay: Proliferation kinetics; type: cell-based, human
Method: HT-29 cells were plated (2×10^4 cells/well) in 24-well plates. After a recovery period of 24 hours, NVX-412 was added in fresh growth medium to final concentrations of 0, 300 and 1000 nM, respectively. After 24, 48 and 72 hours cell numbers were determined with a Z1 Coulter Particle Counter.

HCT116 cells [4] = assay: Morphology assay / quantification of cell sizes; type: cell-based, human; conditions: HCT116, 48 hours treatment, 0.15 and 1 µM
Method: (§3) To investigate potential morphological changes upon treatment with NVX-412, HCT116, HeLa and HT-29 cells were plated in 6-well plates and incubated for up to 72 hours with the indicated concentrations of NVX-412, DMSO as vehicle control and 1 µM Camptothecin (CPT) as a positive control for apoptotic morphology. Control experiments were carried out to ensure that morphological changes are not due to differences in confluency. After 24, 48 and 72 hours pictures were taken with an Olympus IX71 inverted microscope and camera system (Olympus Color View III) at 20× magnification.
(§4) Cell sizes were quantified using specialized imaging software (ImageJ 1.45d, US NIH, Bethesda, MD, USA). Average areas of all cells present within 5 different fields of view per sample were determined after 48 hours treatment with 0, 0.15 and 1 µM NVX-412.

HT-29 cells [5] = assay: Morphology assay / quantification of cell sizes; type: cell-based, human; conditions: HT-29, 48 hours treatment
Method: as §3, §4

HeLa cells [6] = assay: Morphology assay / quantification of cell sizes; type: cell-based, human; conditions: 48 hours treatment
Method: as §3, §4

[7] = system: HCT116 p53+/+ or p53−/− cells; assay: Determination of p53 status dependency; type: cell-based, human; conditions: HCT116 p53+/+ vs p53−/−, 72 hours, viable cell numbers
Method: (§5) The isogenic colon carcinoma cells lines HCT116 p53+/+ or p53−/− and RKO p53+/+ or p53−/− were cultured in 12-well plates. After a recovery period of 24 hours, NVX-412 or Nutlin-3 was added in fresh growth medium at the indicated concentrations. […] After 24 or 72 hours cell numbers were determined with a Beckman Coulter ViCell XR.

[8] = system: RKO p53+/+ or p53−/− cells; assay: Determination of p53 status dependency; type: cell-based, human; conditions: RKO p53+/+ vs p53−/−, 72 hours, viable cell numbers
Method: as §5

HCT116 cells [9] = assay: Flow cytometric cell cycle analysis; type: cell-based, human; conditions: HCT116, 24 hours, IC50 concentration, 0.5 and 1 µM
Method: (§6) HT-29, HeLa and HCT116 cells were plated in 6-well plates. […] CPT was used at 50 nM and 1 µM. To analyze the cell cycle distribution, cells were collected after 24 hours of incubation and washed with PBS. Cells were fixed in 70% ethanol for at least 2 hours. For analysis, cells were transferred into PBS, incubated with RNAse A (0.04 µg/ml final concentration) for 30 minutes at 37°C, treated with […] propidium iodide for 30 min at 4°C and then analyzed by flow cytometry using BD FACScan (Becton, Dickinson and Company, Franklin Lakes, NJ, USA). The resulting DNA histograms were quantified using ModFit LT (Verity Software House, Topsham, ME, USA).

HT-29 cells [10] = assay: Flow cytometric cell cycle analysis; type: cell-based, human; conditions: HT-29, 24 hours, IC50 concentration, 0.5 and 1 µM
Method: as §6

HeLa cells [11] = assay: Flow cytometric cell cycle analysis; type: cell-based, human; conditions: 24 hours, IC50 concentration, 0.5 and 1 µM
Method: as §6

all cell lines tested = assay: β-galactosidase staining (cellular senescence); type: cell-based; conditions: data not shown

`O=C(NNc1nc2cc(F)ccc2n2cccc12)c1cnccn1` [NVX-412, Pyrazine-2-carboxylic acid N’- (7-fluoro-pyrrolo[1,2-α]quinoxalin-4-yl)-hydrazide-oxalic acid co-crystal] showed an IC50 [1] of roughly 200 nM, an IC50 (HL-60) of 210 nM and an IC50 (HepG2) of 290 nM. For the same compound, the IC50 (K562) was 540 nM, the Clonogenic survival (HT-29 cells [2]) was “reduced the ability of HepG2 and HT-29 cells to form colonies in a dose-dependent manner” and the Clonogenic survival (HepG2 cells) was “reduced the ability of HepG2 and HT-29 cells to form colonies in a dose-dependent manner”. For the same compound, the Proliferation of cells (HT-29 cells [3]; HT-29, 300 nM (IC50), after 2 days, compared to untreated control) was “significantly decreased”, the Cell numbers (HT-29 cells [3]; HT-29, 1 µM, 3 days of treatment) was “cell numbers started to decline below the numbers of cells seeded” and the Cell sizes (HCT116 cells [4]) was “highly significant increase in cell sizes”. For the same compound, the Cell sizes (HT-29 cells [5]) was “highly significant increase in cell sizes”, the Cell sizes (HeLa cells [6]) was “highly significant increase in cell sizes” and the “p53 status dependency of sensitivity” value [7] was “the p53 status does not influence the sensitivity to NVX-412”. For the same compound, the “p53 status dependency of sensitivity” value [8] was “the p53 status does not influence the sensitivity to NVX-412”, the Cell cycle distribution (HCT116 cells [9]) was “dose-dependent increase in the fraction of S-phase cells” and the Cell cycle distribution (HT-29 cells [10]) was “dose-dependent increase in the fraction of S-phase cells”. For the same compound, the Cell cycle distribution (HeLa cells [11]) was “dose-dependent increase in the fraction of S-phase cells” and the “β-galactosidase staining (senescence)” value (all cell lines tested) was “negative in all cell lines tested”.
